According to ChEMBL document CHEMBL3885881, “DrugMatrix”:

Species on record: Rattus norvegicus
Assay: DrugMatrix - Regimen: Daily Repeat
Format: toxicity, organism-based, Sprague-Dawley
Set-up: regimen Daily Repeat, gender Male, age 6-8 weeks
Details: in vivo, po, route oral GAVAGE, […]; for ABSOLUTE BASOPHIL / ABSOLUTE EOSINOPHIL / ABSOLUTE LYMPHOCYTE / ABSOLUTE MONOCYTE / ABSOLUTE SEGMENTED NEUTROPHIL / BASOPHIL / EOSINOPHIL / ERYTHROCYTE COUNT / HEMATOCRIT / HEMOGLOBIN / LEUKOCYTE COUNT / LYMPHOCYTE / MEAN CORPUSCULAR HEMOGLOBIN / MEAN CORPUSCULAR HEMOGLOBIN CONCENTRATION / MEAN CORPUSCULAR VOLUME / MONOCYTE / NEUTROPHIL / NUCLEATED RED BLOOD CELLS / PLATELET COUNT: tissue Blood; for ALANINE AMINOTRANSFERASE / ALBUMIN / ALKALINE PHOSPHATASE / ASPARTATE AMINOTRANSFERASE / BLOOD UREA NITROGEN / CARBON DIOXIDE / CHLORIDE / CHOLESTEROL / CREATINE PHOSPHOKINASE / CREATININE / GLUCOSE / LACTATE DEHYDROGENASE / LIPASE / PHOSPHORUS / POTASSIUM / SODIUM / TOTAL BILIRUBIN / TOTAL PROTEIN / URIC ACID: tissue Plasma
[1] = 0 mg/kg, 72 h, dose level Control, time 3 day
[2] = 0 mg/kg, dose level Control, time 7 day
[3] = 130 mg/kg, 72 h, dose level Low, time 3 day

## CCOC(=O)C(C)(C)Oc1ccc(Cl)cc1 [CLOFIBRATE]
[1]
  ABSOLUTE BASOPHIL: 0 CELLS/uL
  ABSOLUTE EOSINOPHIL: 37.33 CELLS/uL
  ABSOLUTE LYMPHOCYTE: 6295.33 CELLS/uL
  ABSOLUTE MONOCYTE: 122.17 CELLS/uL
  ABSOLUTE SEGMENTED NEUTROPHIL: 861.83 CELLS/uL
  BASOPHIL: 0%
  EOSINOPHIL: 0.5%
  ERYTHROCYTE COUNT: 5.2 x10E6/uL
  HEMATOCRIT: 32.58%
  HEMOGLOBIN: 12.95 G/DL
  LEUKOCYTE COUNT: 7.32 x10E3/uL
  LYMPHOCYTE: 86%
  MEAN CORPUSCULAR HEMOGLOBIN: 24.93 pg
  MEAN CORPUSCULAR HEMOGLOBIN CONCENTRATION: 39.77 G/DL
  MEAN CORPUSCULAR VOLUME: 62.65 fL
  MONOCYTE: 1.67%
  NEUTROPHIL: 11.83%
  NUCLEATED RED BLOOD CELLS: 0 /100WBC
  PLATELET COUNT: 1029 x10E3/uL
  ALANINE AMINOTRANSFERASE: 63.67 u/L
  ALBUMIN: 4.12 G/DL
  ALKALINE PHOSPHATASE: 329.83 u/L
  ASPARTATE AMINOTRANSFERASE: 77.67 u/L
  BLOOD UREA NITROGEN: 18 mg/dL
  CARBON DIOXIDE: 29.67 mmol/L
  CHLORIDE: 102.67 MEQ/L
  CHOLESTEROL: 64.5 mg/dL
  CREATINE PHOSPHOKINASE: 178.67 u/L
  CREATININE: 0.18 mg/dL
  GLUCOSE: 163.83 mg/dL
  LACTATE DEHYDROGENASE: 75.83 u/L
  LIPASE: 10 u/L
  PHOSPHORUS: 8.28 mg/dL
  POTASSIUM: 4.79 MEQ/L
  SODIUM: 142.22 MEQ/L
  TOTAL BILIRUBIN: 0.22 mg/dL
  TOTAL PROTEIN: 5.78 G/DL
  URIC ACID: 0.87 mg/dL
[2]
  ABSOLUTE BASOPHIL: 0 CELLS/uL
  ABSOLUTE EOSINOPHIL: 19 CELLS/uL
  ABSOLUTE LYMPHOCYTE: 7803.5 CELLS/uL
  ABSOLUTE MONOCYTE: 117.83 CELLS/uL
  ABSOLUTE SEGMENTED NEUTROPHIL: 1093 CELLS/uL
  BASOPHIL: 0%
  EOSINOPHIL: 0.17%
  ERYTHROCYTE COUNT: 5.84 x10E6/uL
  HEMATOCRIT: 35.75%
  HEMOGLOBIN: 13.87 G/DL
  LEUKOCYTE COUNT: 9.03 x10E3/uL
  LYMPHOCYTE: 87.17%
  MEAN CORPUSCULAR HEMOGLOBIN: 23.78 pg
  MEAN CORPUSCULAR HEMOGLOBIN CONCENTRATION: 38.8 G/DL
  MEAN CORPUSCULAR VOLUME: 61.25 fL
  MONOCYTE: 1.17%
  NEUTROPHIL: 11.5%
  NUCLEATED RED BLOOD CELLS: 0 /100WBC
  PLATELET COUNT: 1098.67 x10E3/uL
  ALANINE AMINOTRANSFERASE: 66 u/L
  ALBUMIN: 4.3 G/DL
  ALKALINE PHOSPHATASE: 291.83 u/L
  ASPARTATE AMINOTRANSFERASE: 80.5 u/L
  BLOOD UREA NITROGEN: 15.67 mg/dL
  CARBON DIOXIDE: 30 mmol/L
  CHLORIDE: 101.67 MEQ/L
  CHOLESTEROL: 69.67 mg/dL
  CREATINE PHOSPHOKINASE: 363.33 u/L
  CREATININE: 0.25 mg/dL
  GLUCOSE: 146.5 mg/dL
  LACTATE DEHYDROGENASE: 219.67 u/L
  LIPASE: 11.33 u/L
  PHOSPHORUS: 10.08 mg/dL
  POTASSIUM: 5.22 MEQ/L
  SODIUM: 144.67 MEQ/L
  TOTAL BILIRUBIN: 0.12 mg/dL
  TOTAL PROTEIN: 6.33 G/DL
  URIC ACID: 0.75 mg/dL
[3]
  ABSOLUTE BASOPHIL: 0 CELLS/uL
  ABSOLUTE EOSINOPHIL: 0 CELLS/uL
  ABSOLUTE LYMPHOCYTE: 6441.67 CELLS/uL
  ABSOLUTE MONOCYTE: 98 CELLS/uL
  ABSOLUTE SEGMENTED NEUTROPHIL: 743.67 CELLS/uL
  BASOPHIL: 0%
  EOSINOPHIL: 0%
  ERYTHROCYTE COUNT: 5.19 x10E6/uL
  HEMATOCRIT: 32.77%
  HEMOGLOBIN: 13.27 G/DL
  LEUKOCYTE COUNT: 7.28 x10E3/uL
  LYMPHOCYTE: 88.83%
  MEAN CORPUSCULAR HEMOGLOBIN: 25.65 pg
  MEAN CORPUSCULAR HEMOGLOBIN CONCENTRATION: 40.57 G/DL
  MEAN CORPUSCULAR VOLUME: 63.17 fL
  MONOCYTE: 1.33%
  NEUTROPHIL: 9.83%
  NUCLEATED RED BLOOD CELLS: 0 /100WBC
  PLATELET COUNT: 1091.67 x10E3/uL
  ALANINE AMINOTRANSFERASE: 69.83 u/L
  ALBUMIN: 4.22 G/DL
  ALKALINE PHOSPHATASE: 373.67 u/L
  ASPARTATE AMINOTRANSFERASE: 86 u/L
  BLOOD UREA NITROGEN: 16.5 mg/dL
  CARBON DIOXIDE: 30.17 mmol/L
  CHLORIDE: 101.83 MEQ/L
  CHOLESTEROL: 48.17 mg/dL
  CREATINE PHOSPHOKINASE: 463.67 u/L
  CREATININE: 0.14 mg/dL
  GLUCOSE: 170.83 mg/dL
  LACTATE DEHYDROGENASE: 85.33 u/L
  LIPASE: 9.67 u/L
  PHOSPHORUS: 8.43 mg/dL
  POTASSIUM: 5.04 MEQ/L
  SODIUM: 142.75 MEQ/L
  TOTAL BILIRUBIN: 0.18 mg/dL
  TOTAL PROTEIN: 5.87 G/DL
  URIC ACID: 0.93 mg/dL
